Here are results for 21 molecules from PubChem BioAssay AID1259408 (Genetic Toxicology Data Bank (GENE-TOX), 2018).

The source made the active and inactive calls. No rule for the calls is given here.

The subject of this data set is GENE-TOX genotoxicity assays, various organisms and cells. Put plainly: GENE-TOX mutagenicity studies. As to conditions: for call: Assay Type: In vivo carcinogenicity studies.
[1] abbreviates: Species/Cell Type: Chinese hamster lung (V79) cells, Assay Type: Forward gene mutation at the HPRT or ouabain locus, Assay Code: V79+, Evaluation Type: Evaluation A (Pre-1980).
Setting [2] is: Species/Cell Type: Drosophila melanogaster, Assay Type: Sex-linked recessive lethal gene mutation, Assay Code: SRLT, Evaluation Type: Evaluation A (Pre-1980).
[3] abbreviates: Species/Cell Type: Mammalian polychromatic erythrocytes, Assay Type: Micronucleus test, chromosome aberrations, Assay Code: MNTT, Evaluation Type: Evaluation B (Post-1980).
[4] abbreviates: Species/Cell Type: Salmonella typhimurium (one or more of the five standard strains: TA98, TA100, TA1535, TA1537, and TA1538), Assay Type: Histidine reverse gene mutation, Ames assay, Assay Code: SAL-, Evaluation Type: Evaluation A (Pre-1980).
Where [5] appears, read: Species/Cell Type: Salmonella typhimurium (one or more of the five standard strains: TA98, TA100, TA1535, TA1537, and TA1538), Assay Type: Histidine reverse gene mutation, Ames assay, Assay Code: SALT, Evaluation Type: Evaluation A (Pre-1980).
Where [6] appears, read: Species/Cell Type: Mammalian polychromatic erythrocytes, Assay Type: Micronucleus test, chromosome aberrations, Assay Code: MNTT, Evaluation Type: Evaluation A (Pre-1980).
The mark [7] stands for this setting: Species/Cell Type: Mouse, Sex: Male, Assay Type: Sperm morphology, Assay Code: SPI-, Evaluation Type: Evaluation A (Pre-1980).
Where [8] appears, read: Species/Cell Type: Salmonella typhimurium (one or more of the five standard strains: TA98, TA100, TA1535, TA1537, and TA1538), Assay Type: Histidine reverse gene mutation, Ames assay, Assay Code: SAL+, Evaluation Type: Evaluation A (Pre-1980).
[9] abbreviates: Species/Cell Type: Nonhuman, Assay Type: Sister-chromatid exchange (SCE) in vivo, Assay Code: SC3T, Evaluation Type: Evaluation B (Post-1980).
Setting [10] is: Species/Cell Type: Nonhuman, Assay Code: CCGT, Evaluation Type: Evaluation A (Pre-1980).
[11] abbreviates: Species/Cell Type: Nonhuman, Assay Type: Sister-chromatid exchange (SCE) in vitro, Assay Code: SC2+D, Dose Response: With dose response, Evaluation Type: Evaluation B (Post-1980).

As for `ClCCNCCCNc1c2ccccc2nc2ccccc12`, the mutagenic call (Species/Cell Type: Chinese hamster ovary (CHO) cells, Assay Type: Forward gene mutation at the HPRT locus, Assay Code: CHO+, Evaluation Type: Evaluation B (Post-1980)) is “active; positive”.

As for `O=C1C=C(N2CC2)C(=O)C2=C1CCCC2`, the mutagenic call (Species/Cell Type: Drosophila melanogaster, Assay Type: Sex-linked recessive lethal gene mutation, Assay Code: SRL+, Evaluation Type: Evaluation A (Pre-1980)) is “active; positive”.

Consider `Cc1ccc2cc3c(c4c2c1CC4)[C@@H](O)[C@@H](O)c1ccccc1-3`, for which the mutagenic call by setting is: under setting [1], “active; positive”; (Species/Cell Type: Mouse prostate cells, Assay Type: Cell transformation, Assay Code: CTMT, Evaluation Type: Evaluation A (Pre-1980)) “no conclusion”.

For `Cc1ccccc1S(N)(=O)=O`, the mutagenic call is “no conclusion” under setting [2], “no conclusion” under setting [3] and “inactive; negative” under setting [4].

On to `CC(=O)Nc1c(I)c(NC(C)=O)c(I)c(C(=O)O)c1I`, for which the mutagenic call (Species/Cell Type: Human lymphocytes, Assay Type: Sister-chromatid exchange (SCE) in vitro, Assay Code: SCLT, Evaluation Type: Evaluation B (Post-1980)) is reported as “no conclusion” and the mutagenic call (Species/Cell Type: Human, Assay Type: Sister-chromatid exchange (SCE) in vitro, Assay Code: SC1T, Evaluation Type: Evaluation B (Post-1980)) is given as “no conclusion”.

For `Cn1c[n+](C)cc1[N+](=O)[O-]`, under setting [5], the mutagenic call is listed as “no conclusion”.

Consider `C=Cc1ccccc1C`, for which the mutagenic call is “active; positive” (Species/Cell Type: Human lymphocytes, Assay Type: Sister-chromatid exchange (SCE) in vitro, Assay Code: SCL+D, Dose Response: With dose response, Evaluation Type: Evaluation B (Post-1980)) and “active; positive” (Species/Cell Type: Human, Assay Type: Sister-chromatid exchange (SCE) in vitro, Assay Code: SC1+D, Dose Response: With dose response, Evaluation Type: Evaluation B (Post-1980)).

For the molecule `CC(C)OC(=O)Nc1cccc(Cl)c1`, the mutagenic call (Species/Cell Type: Hordeum vulgare (barley), Assay Type: Chromosome aberrations, Assay Code: HOC+, Evaluation Type: Evaluation A (Pre-1980)) is “active; positive”; the mutagenic call under setting [6] was “no conclusion”; the mutagenic call under setting [7] was “inactive; negative”; the mutagenic call (Species/Cell Type: Nonhuman, Assay Type: Sister-chromatid exchange (SCE) in vitro, Assay Code: SC2+, Evaluation Type: Evaluation B (Post-1980)) was “active; positive”.

Consider `O=CNNc1nc(-c2ccc([N+](=O)[O-])o2)cs1`, for which the mutagenic call was “active; positive” (Species/Cell Type: Bacillus subtilis (H17 vs M45), Assay Type: Rec-assay, spot test, DNA effects (bacterial DNA repair), Assay Code: REW+, Evaluation Type: Evaluation A (Pre-1980)); “active; positive” (Species/Cell Type: Escherichia coli WP2, Assay Type: Tryptophan reverse gene mutation, Assay Code: WP2+, Evaluation Type: Evaluation A (Pre-1980)); “active; positive” (Species/Cell Type: Escherichia coli WP2 UVRA, Assay Type: Tryptophan reverse gene mutation, Assay Code: WPU+, Evaluation Type: Evaluation A (Pre-1980)); “active; positive” (Species/Cell Type: Mouse, Sex: Male, Assay Type: Sperm morphology, Assay Code: SPI+, Evaluation Type: Evaluation A (Pre-1980)); “active; positive” under setting [8]. Also, the call (Species/Cell Type: Nonhuman, Assay Code: CCG+, Evaluation Type: Evaluation A (Pre-1980)) is “active; positive”.

Turning to `Cc1c2ccccc2c(CO)c2c1ccc1ccccc12`, the mutagenic call under setting [1] was “active; positive”. Also, where the note is “Species/Cell Type: Nonhuman, Assay Code: CCG+L, Evaluation Type: Evaluation A (Pre-1980)”, the call was “active; positive”.

Regarding `NCC(=O)CCC(=O)O`, the mutagenic call (Species/Cell Type: Rodents, Sex: Male, Assay Type: Dominant lethal test, Assay Code: DLT-, Evaluation Type: Evaluation A (Pre-1980)) is “inactive; negative”.

As for `O=C(O)c1c(Br)c(Br)c(Br)c(Br)c1C(=O)O`, the mutagenic call under setting [4] was “inactive; negative”.

For the molecule `O=[N+]([O-])c1ccc(-c2nc(N(CCO)CCO)c3ccccc3n2)s1`, the mutagenic call under setting [5] was “no conclusion”.

Regarding `COc1ccc(Cl)cc1C(=O)NCCc1ccc(S(=O)(=O)NC(=O)NC2CCCCC2)cc1`, the mutagenic call reads like this: under setting [3], “no conclusion”; under setting [9], “no conclusion”.

Regarding `Cc1c2c(c(CO)c3ccc4ccccc4c13)[C@H](O)[C@@H](O)C=C2`, the mutagenic call under setting [1] is “active; positive”. Further, under setting [10], the call was “no conclusion”.

Take `CC1(C)S[C@@H]2[C@H](NC(=O)Cc3ccccc3)C(=O)N2[C@H]1C(=O)O`: the mutagenic call under setting [2] is “no conclusion” and the mutagenic call under setting [4] was “inactive; negative”.

As to `CN(N=O)c1ccccc1`, the mutagenic call (Species/Cell Type: Chinese hamster lung (V79) cells, Assay Type: Forward gene mutation at the HPRT or ouabain locus, Assay Code: V79-*, Activation: With metabolic activation, Evaluation Type: Evaluation A (Pre-1980)) is “inactive; negative” and the mutagenic call (Species/Cell Type: Vicia faba, Assay Type: Chromosome aberrations, Assay Code: VIC+, Evaluation Type: Evaluation A (Pre-1980)) was “active; positive”.

For `Cc1ccc2cc3c(cc(O)c4ccccc43)c3c2c1CC3`, the mutagenic call (Species/Cell Type: Mouse prostate cells, Assay Type: Cell transformation, Assay Code: CTM+, Evaluation Type: Evaluation A (Pre-1980)) was “active; positive”.

Regarding `c1ccc2cc3ccccc3cc2c1`, the mutagenic call runs as follows: (Species/Cell Type: Escherichia coli polA (W3110 vs P3478), Assay Type: Rec-assay, DNA effects (bacterial DNA repair), Assay Code: RE2-, Evaluation Type: Evaluation A (Pre-1980)) “inactive; negative”; (Species/Cell Type: Escherichia coli polA (W3119 vs P3478), Assay Type: Rec-assay, DNA effects (bacterial DNA repair), Assay Code: RE1T, Evaluation Type: Evaluation A (Pre-1980)) “no conclusion”; (Species/Cell Type: Fischer rat embryo (RLV/1706) cells, Assay Type: Cell transformation, viral enhanced, Assay Code: CTRT, Evaluation Type: Evaluation A (Pre-1980)) “no conclusion”; (Species/Cell Type: Human diploid fibroblasts, Assay Type: Unscheduled DNA synthesis (UDS) in vitro, DNA effects, Assay Code: UDH-*, Activation: With metabolic activation, Evaluation Type: Evaluation A (Pre-1980)) “inactive; negative”; under setting [6], “no conclusion”; (Species/Cell Type: Mouse (BALB/c-3T3) cells, Assay Type: Cell transformation, Assay Code: CTB-, Evaluation Type: Evaluation A (Pre-1980)) “inactive; negative”. The mutagenic call (Species/Cell Type: Mouse embryo (AKR/ME) cells, Assay Type: Cell transformation, Assay Code: CTK-, Evaluation Type: Evaluation A (Pre-1980)) is “inactive; negative”; the mutagenic call under setting [7] was “inactive; negative”; the mutagenic call (Species/Cell Type: Nonhuman, Assay Type: Chromosome aberrations in vitro, Assay Code: CY&-, Evaluation Type: Evaluation A (Pre-1980)) was “inactive; negative”; the mutagenic call under setting [11] was “active; positive”; the mutagenic call (Species/Cell Type: Nonhuman, Assay Type: Sister-chromatid exchange (SCE) in vitro, Assay Code: SC2T, Evaluation Type: Evaluation A (Pre-1980)) is “no conclusion”; the mutagenic call (Species/Cell Type: Nonhuman, Assay Type: Sister-chromatid exchange (SCE) in vivo, Assay Code: SC3-, Evaluation Type: Evaluation A (Pre-1980)) is “inactive; negative”. Besides, the mutagenic call reads like this: under setting [9], “no conclusion”; (Species/Cell Type: Rat primary hepatocytes, Assay Type: Unscheduled DNA synthesis (UDS) in vitro, DNA effects, Assay Code: UDP-, Evaluation Type: Evaluation A (Pre-1980)) “inactive; negative”; (Species/Cell Type: Saccharomyces cerevisiae, Assay Type: Mitotic recombination or gene conversion, Assay Code: YEH-, Evaluation Type: Evaluation A (Pre-1980)) “inactive; negative”; under setting [4], “inactive; negative”; (Species/Cell Type: Salmonella typhimurium, Assay Type: Forward and reverse gene mutation, host-mediated assay, Assay Code: HMAT, Evaluation Type: Evaluation A (Pre-1980)) “no conclusion”; (Species/Cell Type: Syrian hamster embryo (SHE) cells, Assay Type: Cell transformation, clonal assay, Assay Code: CTC-, Evaluation Type: Evaluation A (Pre-1980)) “inactive; negative”. The call under setting [10] is reported as “no conclusion”.

Take `NC(Cc1cccc(F)c1)C(=O)O` (stereo not drawn): the mutagenic call (Species/Cell Type: Neurospora crassa, Assay Type: Aneuploidy, chromosome aberrations, Assay Code: NEN-, Evaluation Type: Evaluation A (Pre-1980)) is “inactive; negative”.

Consider `Cc1nc(-c2ccc([N+](=O)[O-])o2)cs1`, for which the mutagenic call is “active; positive” under setting [11] and “active; positive” under setting [8].
